Key:
[1] = test system: ChAT neurons of the nucleus basalis; conditions: following insult with ibotenic acid; cited from earlier work
[2] = test system: dopaminergic neurons in the substantia nigra; conditions: MPTP model; cited from earlier work
[3] = test system: hair cell and cochlear neuron; conditions: associated with trauma; cited from earlier work
[4] = rheumatoid arthritis patients; cited from earlier work
[5] = in vivo; cited from earlier work
[6] = test system: relapsing-remitting form of MS; conditions: patients with relapsing-remitting MS; cited from earlier work
[7] = test system: neuronal subtypes deprived of trophic support; conditions: cited from earlier work
primary neurons = conditions: cited from earlier work
retinal ganglion cells = conditions: following axotomy of the optic nerve; cited from earlier work
MS = conditions: in vivo; cited from earlier work
TNFα mRNA = test: Cytokine mRNA in brain of EAE rats by real-time RT-PCR; type: in vivo, Lewis rats; conditions: brain RNA thirteen days after immunization, RDP58- vs Mannitol-treated, n=9, P<0.05
Protocol: Animals were sacrificed for molecular analysis at post onset day 5. Brains and spinal cords were removed and frozen in liquid nitrogen, then stored at −80° C. until ready for use. The tissues were subsequently homogenized in 700 μl of a guanidinium isothiocyanate solution containing 49 μl β-mercaptoethanol using an Ultraturrax tissue homogenizer (Jahnke and Kunkel, Staufen i. Breisgau, Germany). Total RNA was extracted by using the Absolutely RNA™ RT-PCR Miniprep Kit (Stratagene, La Jolla, USA) and its quality and quantity was determined with the Agilent 2100 Bioanalyzer System (Agilent Technologies, Palo Alto, USA). […]
To measure cytokine mRNA levels, the expression of each gene transcript was analyzed by real-time PCR using the ABI PRISM 7700 Sequence Detection System (TaqMan™, Perkin-Elmer Biosystems, Weiterstadt, Germany). […]
The PCR reaction was performed in a final volume of 25 μl containing 1 μl cDNA, 12.5 μl Master Mix (TaqMan™ Universal PCR Master Mix, Perkin Elmer, Applied Biosystems, Weiterstadt, Germany), 1 μl fluorogenic hybridization probe, […], and 5.5 μl distilled water. […] The mean Ct values for beta-actin and the cytokines were calculated from duplicate reactions. […]

NGF-dependent neurons = test: Apoptosis of NGF-dependent neurons after NGF deprivation (TUNEL); type: cell-based; conditions: media lacking NGF and containing anti-NGF antibody
Protocol: NGF-dependent neurons are maintained in vitro in media containing NGF. The cells are washed and the media containing NGF is replaced with media lacking NGF and containing anti-NGF antibody. One sample is incubated in the presence of RDP-58, the other in the absence of RDP-58. Apoptosis is measured in the two samples, for example, by TUNEL labeling. RDP-58 inhibits neuronal apoptosis in NGF-dependent neurons induced by NGF deprivation.

Body weight in EAE rats = type: in vivo, Lewis rats; conditions: 50, 15, or 5 mg by icv injection ten days after immunization; % body weight vs starting point
[8] = test system: experimental autoimmune encephalomyelitis (EAE); test: Acute EAE in Lewis rats, daily clinical scoring; type: in vivo; conditions: intracerebroventricular administration (Table I, FIG. 7)
Parkinson's disease = conditions: direct infusion into the putamen; cited from earlier work

CCSCc1ccc2c(c1)c1c3c(c4c5cc(CSCC)ccc5n5c4c1n2[C@H]1C[C@](O)(C(=O)OC)[C@]5(C)O1)CNC3=O [CEP-1347]
functional deficits [1]: reduces
survival of ChAT neurons of the nucleus basalis [1]: promotes
survival of dopaminergic neurons in the substantia nigra [2]: promotes
functional deficits [3]: reduce
hair cell and cochlear neuron death [3]: prevent

Infliximab: anti-TNF monoclonal antibody
demyelinating disease symptoms [4]: correlated with incidences of demyelinating disease symptoms in some patients

CN(C)c1ccc(O)c2c1C[C@H]1C[C@H]3[C@H](N(C)C)C(O)=C(C(N)=O)C(=O)[C@@]3(O)C(O)=C1C2=O [minocycline]
penetration of the blood-brain-barrier [5]: limited

glatiramer acetate
disease episodes [6]: reductions

Oc1ccc(-c2nc(-c3ccncc3)c(-c3ccc(F)cc3)[nH]2)cc1 [SB202190]
survival of neuronal subtypes [7]: promote survival

C[S+]([O-])c1ccc(-c2nc(-c3ccncc3)c(-c3ccc(F)cc3)[nH]2)cc1 (stereo not shown) [SB203580]
NO toxicity (primary neurons): inhibits
survival of neuronal subtypes [7]: promote survival
retinal ganglion cell death (retinal ganglion cells): reduced

Cc1ccc(=O)n(-c2ccccc2)c1 [Pirfenidone]
progression of MS (MS): slow
symptoms of MS (MS): reduce

Arg-nL-nL-nL-Arg-nL-nL-nL-Gly-Tyr [RDP58]
TNFα mRNA level in brain (TNFα mRNA): significantly reduced
neuronal apoptosis induced by NGF deprivation (NGF-dependent neurons): inhibits
change in body weight associated with EAE induction (Body weight in EAE rats): reduces
disease index [8]: reducing
incidence [8]: reducing
mean clinical scores [8]: reducing
severity [8]: reducing

B1: GDNF: glial cell line-derived neurotrophic factor (protein, UniProt P39905 78-211, looked up)
Glial cell line-derived …: SPDKQMAVLPRRERNRQAAAANPENSRGKGRRGQRGKNRGCVLTAIHLNVTDLGLGYETKEELIFRYCSGSCDAAETTYDKILKNLSRNRRLVSDKVGQACCRPIAFDDDLSFLDDNLVYHILRKHSAKRCGCI
patients' performance (Parkinson's disease): improve

From US20040186052A1, “Cytomodulating peptides and methods for treating neurological disorders” (priority 2002, published 2004)
